Here are results for 1 compound from EP0579806B1, “MEDICAMENT FOR THE TREATMENT AND/OR PROPHYLAXIS OF FOLATE METABOLISM DISORDERS” (Kragler, Peter, priority 1992, dated 1993).

The series can be described thus: Red blood count and megakaryocyte function before and after therapy in HIV-positive patients. The series is classed as in vivo, Mensch. Particulars: patients pretreated with a chain terminator, before therapy. The text has this: Folgende Laborparameter wurden vor und nach der Therapie an 23 HIV-positiven Patienten mit verschiedener klinischer Symptomatik bestimmt: • 1. Rotes Blutbild und Megakaryozytenfunktion • 2. Weißes Blutbild und Lymphozytensubpopulation • 3. Lymphozytenstimulation • 4. Proteine • a) Gesamteiweiß • b) Elektrophorese • c) Immunelektrophorese • d) zirkulierende Immunkomplexe (CIC) • 5. B12-Gehalt • a) Serum pg/ml • b) Erythrozyten pg/ml Zellen • c) mononukleäre Zellen pg/ml Zellen • 6. Folat-Gehalt • a) Serum ng/ml • b) Erythrozyten ng/ml Zellen • c) mononukleäre Zellen ng/ml Zellen • 7. HIV (Elisa) in Titerstufen • 8. HIV - Westernblot (P24-core, P55-gag, gP41-env, gP120-env, gP160-env) mit Bewertung der Banden von + bis ++++ • 9. β2-Mikroglobulin korreliert • a) mit der Aktivität der NK-Zellen (ADCC = antibody dependent cellmediated cytotoxicity) • b) mit der Aktivität der CD8- NK-Zellen • 10. Neopterin Zwischenprodukt der Reaktion GPT (Guanosintriphosphat) --> Tetrahydrobiopterin (Hydroxylierung von Phenylalanin, Tyrosin und Tryptophan) Die Bedeutung von Neopterin ist zur Zeit noch Gegenstand wissenschaftlicher Untersuchungen. • 11. Lysozym (Muramidase) Messung der Granulozytenaktivität • 12. Serologie sexuell übertragbarer Krankheiten (STD) […]

Molecules are shown by their SMILES.

As to `Cc1cn([C@H]2C[C@H](N=[N+]=[N-])[C@@H](CO)O2)c(=O)[nH]c1=O` [AZT, Azidothymidin], the “makrozytäre, hyperchrome Anämie (MCV, Hbe erhöht)” value was “noch ausgeprägter”.
